From ChEMBL document CHEMBL4295262, “Evaluation of the utility of stem-cell derived cardiomyocytes for drug proarrhythmic potential” (2019)

Assays:
Details in all cases: human, ipsc-cm
[1] = (§1) Electrical activity assay on cell lines treated with a given drug. DMSO was used as a vehicle and a control, unblinded dofetilide was used as a control.; type: ADME, cell-based
[2] = as §1; type: ADME, cell-based; remark: listed apart in the source
[3] = as §1
[4] = as §1; remark: listed apart in the source
[5] = as §1; type: ADME, cell-based; parameters: FPDc: unit not given here
[6] = as §1; remark: listed apart in the source
[7] = 0.9507 µM, concentration (um) 0.950736 uM
[8] = 3.004 µM, concentration (um) 3.00433 uM
[9] = 9.494 µM, concentration (um) 9.49367 uM
[10] = 30 µM, concentration (um) 30 uM
[11] = 0.1 µM, concentration (um) 0.1 uM
[12] = 10 µM, concentration (um) 10 uM
[13] = 100 µM, concentration (um) 100 uM

## C=C[C@H]1C[N@@]2CC[C@H]1C[C@@H]2[C@@H](O)c1ccnc2ccc(OC)cc12 [QUINIDINE]
[1]; [7]
  FPD measurement: 114.6 FPDc
  FPDc: 6 Values Out Of 6 Were Excluded Due To Quiescence Or 0 Fpdc
[1]; [8]
  FPD measurement: 62.36 FPDc
  FPDc: 6 Values Out Of 6 Were Excluded Due To Quiescence Or 0 Fpdc
[1]; [9]
  FPDc: 6 Values Out Of 6 Were Excluded Due To Quiescence Or 0 Fpdc
[1]; [10]
  FPDc: 6 Values Out Of 6 Were Excluded Due To Quiescence Or 0 Fpdc
[2]; [7]
  FPD measurement: 5 Values Out Of 5 Were Excluded Due To Quiescence Or 0 Apdc
  FPDc: 23.33
[2]; [8]
  FPD measurement: 5 Values Out Of 5 Were Excluded Due To Quiescence Or 0 Apdc
  FPDc: 5 Values Out Of 5 Were Excluded Due To Quiescence Or 0 Fpdc
[2]; [9]
  FPD measurement: More Than Half The Wells Had A Quiescence Event Or Apdc Readings Of 0
  FPDc: More Than Half The Wells Had A Quiescence Event Or Fpdc Readings Of 0
[2]; [10]
  FPD measurement: More Than Half The Wells Had A Quiescence Event Or Apdc Readings Of 0
  FPDc: More Than Half The Wells Had A Quiescence Event Or Fpdc Readings Of 0
[3]; 0.9507 µM
  APDc: 66.37
  FPD measurement: 66.37 FPDc
[3]; 3.004 µM
  APDc: 68.44
  FPD measurement: 68.44 FPDc
[3]; 9.494 µM
  APDc: More Than Half The Wells Had A Quiescence Event Or Apdc Readings Of 0
  FPD measurement: More Than Half The Wells Had A Quiescence Event Or Apdc Readings Of 0
[3]; 30 µM
  APDc: More Than Half The Wells Had A Quiescence Event Or Apdc Readings Of 0
  FPD measurement: More Than Half The Wells Had A Quiescence Event Or Apdc Readings Of 0
[4]; 0.9507 µM
  FPD measurement: 66.27 FPDc
  FPDc: 66.27
[4]; 3.004 µM
  FPD measurement: More Than Half The Wells Had A Quiescence Event Or Fpdc Readings Of 0
  FPDc: More Than Half The Wells Had A Quiescence Event Or Fpdc Readings Of 0
[4]; 9.494 µM
  FPD measurement: More Than Half The Wells Had A Quiescence Event Or Fpdc Readings Of 0
  FPDc: More Than Half The Wells Had A Quiescence Event Or Fpdc Readings Of 0
[4]; 30 µM
  FPD measurement: More Than Half The Wells Had A Quiescence Event Or Fpdc Readings Of 0
  FPDc: More Than Half The Wells Had A Quiescence Event Or Fpdc Readings Of 0
[5]; [7]
  FPD measurement: 5 Values Out Of 5 Were Excluded Due To Quiescence Or 0 Apdc
  FPDc: 51.68
[5]; [8]
  FPD measurement: 5 Values Out Of 5 Were Excluded Due To Quiescence Or 0 Apdc
  FPDc: 48.01
[5]; [9]
  FPD measurement: 5 Values Out Of 5 Were Excluded Due To Quiescence Or 0 Apdc
  FPDc: 56.69
[5]; [10]
  FPD measurement: 5 Values Out Of 5 Were Excluded Due To Quiescence Or 0 Apdc
  FPDc: 51.52

## CC(C)N(CCC(C(N)=O)(c1ccccc1)c1ccccn1)C(C)C (stereo unspecified) [DISOPYRAMIDE]
[1]; [11]
  FPD measurement: 49.69 FPDc
  FPDc: 6 Values Out Of 6 Were Excluded Due To Quiescence Or 0 Fpdc
[1]; 1 µM, concentration (um) 1 uM
  FPD measurement: 52.18 FPDc
  FPDc: 6 Values Out Of 6 Were Excluded Due To Quiescence Or 0 Fpdc
[1]; [12]
  FPD measurement: 63.31 FPDc
  FPDc: 6 Values Out Of 6 Were Excluded Due To Quiescence Or 0 Fpdc
[1]; [13]
  FPDc: 6 Values Out Of 6 Were Excluded Due To Quiescence Or 0 Fpdc
[2]; [11]
  FPD measurement: 5 Values Out Of 5 Were Excluded Due To Quiescence Or 0 Apdc
  FPDc: 23.29
[2]; 1 µM, concentration (um) 1 uM
  FPD measurement: 5 Values Out Of 5 Were Excluded Due To Quiescence Or 0 Apdc
  FPDc: 24.45
[2]; [12]
  FPD measurement: 5 Values Out Of 5 Were Excluded Due To Quiescence Or 0 Apdc
  FPDc: 24.5
[2]; [13]
  FPD measurement: More Than Half The Wells Had A Quiescence Event Or Apdc Readings Of 0
  FPDc: More Than Half The Wells Had A Quiescence Event Or Fpdc Readings Of 0
[3]; 0.1 µM
  APDc: 56.58
  FPD measurement: 56.58 FPDc
[3]; 1 µM
  APDc: 63.45
  FPD measurement: 63.45 FPDc
[3]; 10 µM
  APDc: 68.66
  FPD measurement: 68.66 FPDc
[3]; 100 µM
  APDc: 66.87
  FPD measurement: 66.87 FPDc
[6]; 0.1 µM
  FPD measurement: 1 Values Out Of 1 Were Excluded Due To Quiescence Or 0 Fpdc
  FPDc: 1 Values Out Of 1 Were Excluded Due To Quiescence Or 0 Fpdc
[6]; 1 µM
  FPD measurement: 1 Values Out Of 1 Were Excluded Due To Quiescence Or 0 Fpdc
  FPDc: 1 Values Out Of 1 Were Excluded Due To Quiescence Or 0 Fpdc
[6]; 10 µM
  FPD measurement: 1 Values Out Of 1 Were Excluded Due To Quiescence Or 0 Fpdc
  FPDc: 1 Values Out Of 1 Were Excluded Due To Quiescence Or 0 Fpdc
[6]; 100 µM
  FPD measurement: 1 Values Out Of 1 Were Excluded Due To Quiescence Or 0 Fpdc
  FPDc: 1 Values Out Of 1 Were Excluded Due To Quiescence Or 0 Fpdc
[5]; [11]
  FPD measurement: 5 Values Out Of 5 Were Excluded Due To Quiescence Or 0 Apdc
  FPDc: 48.43
[5]; 1 µM, concentration (um) 1 uM
  FPD measurement: 5 Values Out Of 5 Were Excluded Due To Quiescence Or 0 Apdc
  FPDc: 75.52
[5]; [12]
  FPDc: 26.6
[5]; [13]
  FPD measurement: 5 Values Out Of 5 Were Excluded Due To Quiescence Or 0 Apdc
  FPDc: 18.51
